Reference: patent US20020035061A1, “COMPOSITIONS AND METHODS FOR TREATING INFECTIONS USING CATIONIC PEPTIDES ALONE OR IN COMBINATION WITH ANTIBIOTICS” (priority 1996, published 2002)

Test system: bacterial isolates
Assay: microbe, parasite or virus in culture
Assay type: cell-based

KKWWRRALQGLKTAGPAIQSVLNK [MBI 21A2] was tested, and the “Peptide MIC Alone” value (1. Amikacin, A. baumannii ABI001) was 8 µg/mL, the “Peptide MIC Alone” value (1. Amikacin, A. baumannii ABI003) was 8 µg/mL and the “Peptide MIC Alone” value (1. Amikacin, E. faecalis EFS008) was over 128 µg/mL. The “Peptide MIC Alone” value (1. Amikacin, E. faecium EFM004) was over 128 µg/mL, the “Peptide MIC Alone” value (1. Amikacin, P. aeruginosa PA022) was 8 µg/mL and the “Peptide MIC Alone” value (1. Amikacin, S. aureus SA025 MRSA) was 2 µg/mL. The “Peptide MIC Alone” value (1. Amikacin, S. epidermidis SE003) was over 128 µg/mL, the “Peptide MIC Alone” value (1. Amikacin, S. maltophilia SMA018) was 16 µg/mL and the “Peptide MIC Alone” value (1. Amikacin, S. maltophilia SMA022) was over 128 µg/mL. For the same sequence, the “Peptide MIC Alone” value (3. Ciprofloxacin, P. aeruginosa PA4) was over 128 µg/mL, the “Peptide MIC Alone” value (3. Ciprofloxacin, P. aeruginosa PA41) was 64 µg/mL and the “Peptide MIC Alone” value (3. Ciprofloxacin, S. aureus SA25) was 16 µg/mL. For the same sequence, the “Peptide MIC Alone” value (3. Ciprofloxacin, S. aureus SA93) was 16 µg/mL, the “Peptide MIC Alone” value (4. Gentamicin, A. baumannii ABI002) was 8 µg/mL and the “Peptide MIC Alone” value (4. Gentamicin, P. aeruginosa PA022) was 8 µg/mL. The “Peptide MIC Alone” value (4. Gentamicin, S. aureus SA025 MRSA) was 8 µg/mL, the “Peptide MIC Alone” value (4. Gentamicin, S. maltophilia SMA019) was 16 µg/mL and the “Peptide MIC Alone” value (4. Gentamicin, S. maltophilia SMA020) was 16 µg/mL. For the same sequence, the “Peptide MIC Alone” value (4. Gentamicin, S. maltophilia SMA021) was 16 µg/mL, the “Amikacin MIC + Peptide” value (A. baumannii ABI001) was 32 µg/mL and the “Peptide MIC + Amikacin” value (A. baumannii ABI001) was 0.125 µg/mL. For the same sequence, the “Gentamicin MIC + Peptide” value (A. baumannii ABI002) was 16 µg/mL, the “Peptide MIC + Gentamicin” value (A. baumannii ABI002) was 0.5 µg/mL and the “Amikacin MIC + Peptide” value (A. baumannii ABI003) was 8 µg/mL. The “Peptide MIC + Amikacin” value (A. baumannii ABI003) was 4 µg/mL, the “Peptide MIC + Piperacillin” value (E. coli 1) was 2 µg/mL and the “Piperacillin MIC + Peptide” value (E. coli 1) was 8 µg/mL. For the same sequence, the “Peptide MIC Alone” value (E. coli 1, Piperacillin section) was 4 µg/mL, the “Amikacin MIC + Peptide” value (E. faecalis EFS008) was 32 µg/mL and the “Peptide MIC + Amikacin” value (E. faecalis EFS008) was 0.125 µg/mL. The “Amikacin MIC + Peptide” value (E. faecium EFM004) was 64 µg/mL, the “Peptide MIC + Amikacin” value (E. faecium EFM004) was 16 µg/mL and the “Peptide MIC + Piperacillin” value (H. influenzae 1) was 64 µg/mL. The “Piperacillin MIC + Peptide” value (H. influenzae 1) was 4 µg/mL, the “Peptide MIC Alone” value (H. influenzae 1, Piperacillin section) was over 128 µg/mL and the “Peptide MIC + Piperacillin” value (H. influenzae 2) was 32 µg/mL. The “Piperacillin MIC + Peptide” value (H. influenzae 2) was 32 µg/mL, the “Peptide MIC Alone” value (H. influenzae 2, Piperacillin section) was over 128 µg/mL and the “Peptide MIC + Piperacillin” value (P. aeruginosa 23) was 16 µg/mL. For the same sequence, the “Piperacillin MIC + Peptide” value (P. aeruginosa 23) was 8 µg/mL, the “Peptide MIC Alone” value (P. aeruginosa 23, Piperacillin section) was over 128 µg/mL and the “Ciprofloxacin MIC + Peptide” value (P. aeruginosa PA4) was 0.125 µg/mL. For the same sequence, the “Peptide MIC + Ciprofloxacin” value (P. aeruginosa PA4) was 64 µg/mL, the “Amikacin MIC + Peptide” value (P. aeruginosa PA022) was 16 µg/mL and the “Gentamicin MIC + Peptide” value (P. aeruginosa PA022) was 8 µg/mL. The “Peptide MIC + Amikacin” value (P. aeruginosa PA022) was 2 µg/mL, the “Peptide MIC + Gentamicin” value (P. aeruginosa PA022) was 2 µg/mL and the “Ciprofloxacin MIC + Peptide” value (P. aeruginosa PA41) was 1 µg/mL. The “Peptide MIC + Ciprofloxacin” value (P. aeruginosa PA41) was 16 µg/mL, the “Peptide MIC + Piperacillin” value (S. aureus 19 MRSA) was 2 µg/mL and the “Piperacillin MIC + Peptide” value (S. aureus 19 MRSA) was 64 µg/mL. The “Peptide MIC Alone” value (S. aureus 19 MRSA, Piperacillin section) was over 128 µg/mL, the “Ciprofloxacin MIC + Peptide” value (S. aureus SA25) was 0.5 µg/mL and the “Peptide MIC + Ciprofloxacin” value (S. aureus SA25) was 4 µg/mL. For the same sequence, the “Amikacin MIC + Peptide” value (S. aureus SA025 MRSA) was 2 µg/mL, the “Gentamicin MIC + Peptide” value (S. aureus SA025 MRSA) was 32 µg/mL and the “Peptide MIC + Amikacin” value (S. aureus SA025 MRSA) was 1 µg/mL. The “Peptide MIC + Gentamicin” value (S. aureus SA025 MRSA) was 1 µg/mL, the “Ciprofloxacin MIC + Peptide” value (S. aureus SA93) was 8 µg/mL and the “Peptide MIC + Ciprofloxacin” value (S. aureus SA93) was 2 µg/mL. For the same sequence, the “Peptide MIC + Piperacillin” value (S. aureus SB2MRSA) was 2 µg/mL, the “Piperacillin MIC + Peptide” value (S. aureus SB2MRSA) was 64 µg/mL and the “Peptide MIC Alone” value (S. aureus SB2MRSA, Piperacillin section) was 32 µg/mL. The “Amikacin MIC + Peptide” value (S. epidermidis SE003) was 4 µg/mL, the “Peptide MIC + Amikacin” value (S. epidermidis SE003) was 64 µg/mL and the “Peptide MIC + Piperacillin” value (S. maltophilia 6) was 16 µg/mL. For the same sequence, the “Piperacillin MIC + Peptide” value (S. maltophilia 6) was 64 µg/mL, the “Peptide MIC Alone” value (S. maltophilia 6, Piperacillin section) was 128 µg/mL and the “Peptide MIC + Piperacillin” value (S. maltophilia 14) was 16 µg/mL. The “Piperacillin MIC + Peptide” value (S. maltophilia 14) was 4 µg/mL, the “Peptide MIC Alone” value (S. maltophilia 14, Piperacillin section) was 32 µg/mL and the “Amikacin MIC + Peptide” value (S. maltophilia SMA018) was 64 µg/mL. For the same sequence, the “Peptide MIC + Amikacin” value (S. maltophilia SMA018) was 4 µg/mL, the “Gentamicin MIC + Peptide” value (S. maltophilia SMA019) was 16 µg/mL and the “Peptide MIC + Gentamicin” value (S. maltophilia SMA019) was 4 µg/mL. The “Gentamicin MIC + Peptide” value (S. maltophilia SMA020) was 16 µg/mL, the “Peptide MIC + Gentamicin” value (S. maltophilia SMA020) was 4 µg/mL and the “Gentamicin MIC + Peptide” value (S. maltophilia SMA021) was 16 µg/mL. The “Peptide MIC + Gentamicin” value (S. maltophilia SMA021) was 4 µg/mL, the “Amikacin MIC + Peptide” value (S. maltophilia SMA022) was 32 µg/mL and the “Peptide MIC + Amikacin” value (S. maltophilia SMA022) was 32 µg/mL. The “Peptide MIC + Piperacillin” value (S. marcescens 1) was 4 µg/mL, the “Piperacillin MIC + Peptide” value (S. marcescens 1) was 16 µg/mL and the “Peptide MIC Alone” value (S. marcescens 1, Piperacillin section) was over 128 µg/mL. For the same sequence, the FIC (peptide + Amikacin, A. baumannii ABI001) was 0.52, the FIC (peptide + Amikacin, A. baumannii ABI003) was 0.52 and the FIC (peptide + Amikacin, E. faecalis EFS008) was 0.50. For the same sequence, the FIC (peptide + Amikacin, E. faecium EFM004) was 0.56, the FIC (peptide + Amikacin, P. aeruginosa PA022) was 0.50 and the FIC (peptide + Amikacin, S. aureus SA025 MRSA) was 0.56. It also gave an FIC (peptide + Amikacin, S. epidermidis SE003) of 0.38, an FIC (peptide + Amikacin, S. maltophilia SMA018) of 0.50 and an FIC (peptide + Amikacin, S. maltophilia SMA022) of 0.25. For the same sequence, the FIC (peptide + Ciprofloxacin, P. aeruginosa PA4) was 0.50, the FIC (peptide + Ciprofloxacin, P. aeruginosa PA41) was 0.50 and the FIC (peptide + Ciprofloxacin, S. aureus SA25) was 0.50. For the same sequence, the FIC (peptide + Ciprofloxacin, S. aureus SA93) was 0.38, the FIC (peptide + Gentamicin, A. baumannii ABI002) was 0.56 and the FIC (peptide + Gentamicin, P. aeruginosa PA022) was 0.50. For the same sequence, the FIC (peptide + Gentamicin, S. aureus SA025 MRSA) was 0.63, the FIC (peptide + Gentamicin, S. maltophilia SMA019) was 0.50 and the FIC (peptide + Gentamicin, S. maltophilia SMA020) was 0.50. For the same sequence, the FIC (peptide + Gentamicin, S. maltophilia SMA021) was 0.50, the FIC (peptide + Piperacillin, E. coli 1) was 0.53 and the FIC (peptide + Piperacillin, H. influenzae 1) was 0.31. For the same sequence, the FIC (peptide + Piperacillin, H. influenzae 2) was 0.38, the FIC (peptide + Piperacillin, P. aeruginosa 23) was 0.19 and the FIC (peptide + Piperacillin, S. aureus 19 MRSA) was 0.51. It also gave an FIC (peptide + Piperacillin, S. aureus SB2MRSA) of 0.56, an FIC (peptide + Piperacillin, S. maltophilia 6) of 0.38 and an FIC (peptide + Piperacillin, S. maltophilia 14) of 0.53. The FIC (peptide + Piperacillin, S. marcescens 1) was 0.27.
